Values joined by “and” are separate entries in the source; they are usually repeats but may differ in a detail not shown here. Equal values may be shown once.
Test: Part 2 PK study: 200 mg QD versus 100 mg BID for 10 days under fed conditions
Format: in vivo, human
Description: Part 2 involved analysing the PK parameters obtained following either single (QD) or twice daily (BD) dosing of a compound of formula (Ia) under fed conditions.
Subjects were randomized 1:1 to receive a daily dose of 200 mg administered once daily in the morning (200 mg capsule) or twice daily (100 mg capsules BID) for a total of 10 days. PK blood samples were taken on Day 1 pre-dose and at 0.25, 0.5, 1.0, 1.5, 2, 3, 4, 8, 10, 12 and 16 hours post-dose. On Days 2 to 10, PK blood samples were taken once pre-dose, and on Days 11 to 14, at 24, 36, 48, 60, 72 and 96 hours post-dose.
Subjects selected for participation checked into the clinical unit and were randomized to the dosing regimen receiving their first dose of study drug on the morning of Day 1 followed by PK and safety assessments through the morning of Day 2 (24 hours post-dose). Subjects on a BID regimen received their second dose of study drug approximately 12 hours after the first dose. Subjects remained confined in the clinic for dosing BID or QD through the last dose of study drug on the morning of Day 10. PK samples were collected through 96 hrs post-dose. Subjects were discharged from the clinic following collection of the 72 hr PK sample, returning to the clinic on the morning of Day 14 for the 96 hr sample collection.
For both Parts 1 and 2, samples were processed and analysed as follows. The method extracted Q-122 and the Internal Standard (IS, Q-122 ^13C4) from human plasma using protein precipitation extraction.
The analytes were separated by HPLC on a Phenomenex Synergi Polar-RP column, and the eluates monitored by an API4000 MS/MS detector in positive MRM mode. The extract was then assayed against a calibration curve. The data were acquired and processed by the data acquisition system Analyst® (Sciex) linked directly to the API4000 MS/MS detector and then processed in Watson LIMS™ (Thermo Scientific), where applicable. The method range is from 10.0 to 2500 ng/mL using 50 μL of matrix and has a run time of approximately 3.2 minutes per sample.
Plasma PK parameters for each dosing regimen and dose level were calculated from the concentrations of Q-122 and its major metabolites measured in pre-dose and post-dose plasma samples. For each dose level, descriptive statistics (sample size, arithmetic means, geometric means, standard deviation, % coefficient of variation, minimum, median, and maximum) are presented.
The pharmacokinetic results were processed according to standard non-compartmental analytical procedures. The software used was Phoenix™ WinNonlin® v 6.4 (Pharsight Corporation, USA) and Microsoft® Excel® 2010 (Microsoft Corporation). The following PK parameters were estimated from plasma data.

[1] = 100 mg BID, fed, Day 10, median
[2] = 200 mg QD, fed, Day 1, individual subjects

Structure (SMILES): c1cnc(NCc2ccc(CNc3ncccn3)cc2)nc1 [Q-122]
- CLss/F (100 mg BID, fed, Day 10, mean): 19.340 L/h
- Cavg (100 mg BID, fed, Day 10, mean): 453.609 ng/mL
- Cmin (100 mg BID, fed, Day 10, mean): 145.833 ng/mL
- Fluct (100 mg BID, fed, Day 10, mean): 193.726%
- Tlast (100 mg BID, fed, Day 10, mean): 40.000 h
- % AUCexp [1]: 4.42%
- Accum Index [1]: 1.58
- CLss/F [1]: 17.38 L/h
- Cavg [1]: 480.30 ng/mL
- Cmin [1]: 138.50 ng/mL
- Fluct [1]: 200.31%
- Tlast [1]: 36.00 h
- % AUCexp (100 mg BID, fed, Day 10, min): 1.52%
- AUC0-last (100 mg BID, fed, Day 10, min): 5510 ng·h/mL
- AUC0-tau (100 mg BID, fed, Day 10, min): 3731 ng·h/mL
- AUCinf (100 mg BID, fed, Day 10, min): 6000 ng·h/mL
- Accum Index (100 mg BID, fed, Day 10, min): 1.28
- CLss/F (100 mg BID, fed, Day 10, min): 14.28 L/h
- Cavg (100 mg BID, fed, Day 10, min): 310.92 ng/mL
- Cmax (100 mg BID, fed, Day 10, min): 677.00 ng/mL
- Cmin (100 mg BID, fed, Day 10, min): 117.00 ng/mL
- Fluct (100 mg BID, fed, Day 10, min): 152.13%
- Tlast (100 mg BID, fed, Day 10, min): 24 h
- Tmax (100 mg BID, fed, Day 10, min): 1.00 h
- t½ (100 mg BID, fed, Day 10, min): 5.46 h
- Cmin (range over subjects) (200 mg QD dosing with food): 52 to 94 ng/mL
- change of Cmax and Cavg between Days 1 and 10 (200 mg QD dosing with food): neither Cmax nor Cavg changed
- AUC0-last [2]: 6439 ng·h/mL and 1632 ng·h/mL and 6744 ng·h/mL and 8831 ng·h/mL and 12137 ng·h/mL and 12571 ng·h/mL
- AUC0-tau [2]: 8831 ng·h/mL and 12137 ng·h/mL and 12571 ng·h/mL and 6439 ng·h/mL and 1632 ng·h/mL and 6744 ng·h/mL
- Cavg [2]: 268.28 ng/mL and 67.99 ng/mL and 290.99 ng/mL and 367.97 ng/mL and 505.70 ng/mL and 523.80 ng/mL
- Cmax [2]: 980.00 ng/mL and 101.00 ng/mL and 1410.00 ng/mL and 1700.00 ng/mL and 1880.00 ng/mL and 2010.00 ng/mL
- Fluct [2]: 365.28% and 148.55% and 501.79% and 461.99% and 371.76% and 383.73%
- Tlast [2]: 24.00 h
- t½ [2]: 7.07 h and 5.60 h and 4.61 h and 9.17 h and 17.12 h and 8.29 h
- AUC0-last (200 mg QD, fed, Day 1, max): 12571 ng·h/mL
- AUC0-tau (200 mg QD, fed, Day 1, max): 12571 ng·h/mL
- Cavg (200 mg QD, fed, Day 1, max): 523.80 ng/mL
- Cmax (200 mg QD, fed, Day 1, max): 2010.00 ng/mL
- Fluct (200 mg QD, fed, Day 1, max): 501.79%
- Tlast (200 mg QD, fed, Day 1, max): 24.00 h
- t½ (200 mg QD, fed, Day 1, max): 17.12 h
- Cavg (200 mg QD, fed, Day 1, mean): 335.791 ng/mL
- Fluct (200 mg QD, fed, Day 1, mean): 372.185%
- Tlast (200 mg QD, fed, Day 1, mean): 24.000 h
- Cavg (200 mg QD, fed, Day 1, median): 324.48 ng/mL
- Fluct (200 mg QD, fed, Day 1, median): 377.75%
- Tlast (200 mg QD, fed, Day 1, median): 24.00 h
- AUC0-last (200 mg QD, fed, Day 1, min): 1632 ng·h/mL
- AUC0-tau (200 mg QD, fed, Day 1, min): 1632 ng·h/mL
- Cavg (200 mg QD, fed, Day 1, min): 67.99 ng/mL
- Cmax (200 mg QD, fed, Day 1, min): 101.00 ng/mL
- Fluct (200 mg QD, fed, Day 1, min): 148.55%
- Tlast (200 mg QD, fed, Day 1, min): 24.00 h
- t½ (200 mg QD, fed, Day 1, min): 4.61 h

— patent publication US20220133722A1, “PHARMACEUTICAL COMPOSITIONS” (QUE ONCOLOGY PTY LTD, priority 2019, published 2022)
